# From patent publication US11098041B2 (Merck Patent GmbH, priority 2014, dated 2021)
# Tests used:
# [1] = biological target: BTK C481S (His-TEV-hsBTK(328-659)(C481S)) (Homo sapiens (Human), UniProt Q06187, C481S); experiment: Assay B: microfluidic off-chip mobility shift assay against BTK C481S enzyme; assay type: biochemical; settings: BTK C481S mutant
# Method in brief: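 Substrate-to-phosphopeptide conversion quantified by microfluidic mobility shift with laser-induced fluorescence; IC50 and efficacy from log[inhibitor] vs. % activity.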
# LCK = LCK (Homo sapiens (Human), UniProt P06239); experiment: Assay E: LCK biochemical assay (HotSpot Kinase Assay); settings: for inhibition at 1 µM: read-out: LCK % inhibition at 1 uM test concentration (Assay E)
# Method: Assay E: LCK Biochemical Assay
# The standard protocol below describes the standard HotSpot Kinase Assay run by the Reaction Biology Corporation as a service.
# The substrate (poly(EY) (Glu:Tyr (4:1)) and the cofactors were prepared in fresh Reaction Buffer (20 mM Hepes (pH 7.5), 10 mM MgCl2, 2 mM MnCl2, 1 mM EGTA, 0.02% Brij35, 0.02 mg/ml BSA, 0.1 mM Na3VO4, 2 mM DTT, 2% DMSO). To the substrate solution was then added the enzyme (LCK; recombinant human full-length (Genbank Accession #NP_005347); C-terminal His-tagged, expressed in insect cells), and the resulting solution was then gently mixed. The test compounds were dissolved in DMSO and then delivered into the kinase reaction mixture using acoustic liquid handling technology (Echo550; nanoliter range). The reaction mixture was incubated for 20 min at RT and then treated with ^33P-ATP to initiate the reaction. After 2 hours of incubation at RT, kinase activity was detected using Reaction Biology Corporation's proprietary P81 filter-binding method.
# full-length human BTK = full-length human BTK (Homo sapiens (Human), UniProt Q06187); experiment: Assay A: microfluidic off-chip mobility shift assay against BTK enzyme; assay type: biochemical
# [2] = system: anti-IgM-induced expression of CD69 on CD19 positive cells (B cells) in human PBMCs; experiment: Assay C: PBMC IC50 assay (anti-IgM-induced CD69 expression); assay type: cell-based; settings: anti-IgM stimulation
# Method in brief: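 Freshly isolated human PBMCs (2.5×10^5/well) pretreated 1 h with compound, then stimulated overnight (~16-18 h) with goat F(ab′)2 anti-human IgM. CD69 on CD19+ B cells measured by flow cytometry; IC50 from percentage CD69+ B cells versus concentration.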
# LCK, sequence (P06239 whole entry): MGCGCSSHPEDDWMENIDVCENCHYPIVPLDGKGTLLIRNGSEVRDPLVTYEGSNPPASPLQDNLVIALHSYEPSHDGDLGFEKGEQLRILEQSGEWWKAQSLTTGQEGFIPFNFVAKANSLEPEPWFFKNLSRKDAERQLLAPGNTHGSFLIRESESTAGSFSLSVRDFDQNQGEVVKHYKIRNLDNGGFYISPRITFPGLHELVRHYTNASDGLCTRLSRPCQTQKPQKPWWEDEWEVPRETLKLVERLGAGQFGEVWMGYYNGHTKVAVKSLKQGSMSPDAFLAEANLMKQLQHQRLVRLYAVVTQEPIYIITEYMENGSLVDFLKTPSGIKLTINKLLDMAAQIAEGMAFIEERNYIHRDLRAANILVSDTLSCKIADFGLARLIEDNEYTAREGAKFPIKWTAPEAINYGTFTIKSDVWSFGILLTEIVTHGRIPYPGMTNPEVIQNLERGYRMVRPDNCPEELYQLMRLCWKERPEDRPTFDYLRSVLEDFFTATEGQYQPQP
# full-length human BTK, sequence (Q06187 whole entry): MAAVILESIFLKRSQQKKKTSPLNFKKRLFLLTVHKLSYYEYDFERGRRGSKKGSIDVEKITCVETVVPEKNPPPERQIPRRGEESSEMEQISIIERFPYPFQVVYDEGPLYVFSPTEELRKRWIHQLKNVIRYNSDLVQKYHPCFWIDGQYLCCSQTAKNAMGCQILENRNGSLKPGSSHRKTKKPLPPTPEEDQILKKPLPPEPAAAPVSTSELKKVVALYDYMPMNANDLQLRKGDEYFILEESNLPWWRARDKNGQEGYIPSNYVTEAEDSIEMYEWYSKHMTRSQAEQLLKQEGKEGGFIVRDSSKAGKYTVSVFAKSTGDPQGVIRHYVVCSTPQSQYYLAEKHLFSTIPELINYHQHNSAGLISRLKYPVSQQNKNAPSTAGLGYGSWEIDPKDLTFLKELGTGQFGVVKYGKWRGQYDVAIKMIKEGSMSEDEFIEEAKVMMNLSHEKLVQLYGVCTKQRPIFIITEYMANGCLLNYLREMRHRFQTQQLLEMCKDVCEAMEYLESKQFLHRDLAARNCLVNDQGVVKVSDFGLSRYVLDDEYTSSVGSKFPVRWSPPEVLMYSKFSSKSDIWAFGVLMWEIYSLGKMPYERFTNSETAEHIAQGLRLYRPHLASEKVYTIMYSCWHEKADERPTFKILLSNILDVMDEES
# BTK C481S (His-TEV-hsBTK(328-659)(C481S)), sequence (Q06187 328-659 C481S): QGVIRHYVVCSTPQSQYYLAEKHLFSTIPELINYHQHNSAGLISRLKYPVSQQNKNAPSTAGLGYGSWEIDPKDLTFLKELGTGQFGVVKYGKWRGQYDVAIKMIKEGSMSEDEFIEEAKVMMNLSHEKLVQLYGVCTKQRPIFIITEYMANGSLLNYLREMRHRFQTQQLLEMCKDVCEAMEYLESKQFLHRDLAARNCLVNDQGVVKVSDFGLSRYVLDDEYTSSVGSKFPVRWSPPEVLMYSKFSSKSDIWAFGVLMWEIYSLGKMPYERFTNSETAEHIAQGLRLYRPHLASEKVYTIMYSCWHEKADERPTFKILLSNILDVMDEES
SMILES,IC50 [1],inhibition at 1 µM (LCK),IC50 (full-length human BTK),IC50 [2],IC50 (LCK)
"Cn1cc(-c2nc3c(-c4ccc(CNC(=O)c5ccc(C(C)(C)C)cc5)c(C(F)(F)F)c4)ccnc3[nH]2)cn1 [Example 108, 4-tert-Butyl-N-{4-[2-(1-methyl-1H-pyrazol-4-yl)-3H-imidazo[4,5-b]pyridin-7-yl]-2-trifluoromethyl-benzyl}-benzamide]",< 100 nM,17%,< 100 nM,< 100 nM,–
"CC(C)(C)c1nc(C(=O)NCc2ccc(-c3ccnc4[nH]c(-c5ccc(N6CCC(O)CC6)cn5)nc34)cc2F)no1 [Example 84, 5-tert-butyl-N-[(2-fluoro-4-[2-[5-(4-hydroxypiperidin-1-yl)pyridin-2-yl]-3H-imidazo[4,5-b]pyridin-7-yl]phenyl)methyl]-1,2,4-oxadiazole-3-carboxamide]",< 100 nM,–,< 100 nM,< 100 nM,585 µM
"CC1CN(c2ccc(-c3nc4c(-c5ccc(CNC(=O)c6noc(C(C)(C)C)n6)c(F)c5)ccnc4[nH]3)nc2)CC(C)O1 (stereo not shown) [Example 81, 5-tert-Butyl-N-[(4-[2-[5-(2,6-dimethylmorpholin-4-yl)pyridin-2-yl]-3H-imidazo[4,5-b]pyridin-7-yl]-2-fluorophenyl)methyl]-1,2,4-oxadiazole-3-carboxamide]",< 100 nM,15%,< 100 nM,< 100 nM,–
"Cn1cc(-c2nc3c(-c4ccc(CN5Cc6cc(C(C)(C)C)sc6C5=O)c(F)c4)ccnc3[nH]2)cn1 [Example 92, 2-tert-Butyl-5-([2-fluoro-4-[2-(1-methyl-1H-pyrazol-4-yl)-3H-imidazo[4,5-b]pyridin-7-yl]phenyl]methyl)-4H,5H,6H-thieno[2,3-c]pyrrol-6-one]",< 100 nM,29%,< 100 nM,100 to 1000 nM,–
"CN(C)c1ccc(-c2nc3c(-c4ccc(CNC(=O)c5noc(C(C)(C)C)n5)c(F)c4)ccnc3[nH]2)nc1 [Example 146, 5-tert-Butyl-[1,2,4]oxadiazole-3-carboxylic acid 4-[2-(5-dimethylamino-pyridin-2-yl)-3H-imidazo[4,5-b]pyridin-7-yl]-2-fluoro-benzylamide]",–,11%,< 100 nM,100 to 1000 nM,–
"CC(C)(C)c1nnc(C(=O)NCc2ccc(-c3ccnc4[nH]c(C5=CCOCC5)nc34)cc2F)o1 [Example 138, 5-(tert-butyl)-N-(4-(2-(3,6-dihydro-2H-pyran-4-yl)-3H-imidazo[4,5-b]pyridin-7-yl)-2-fluorobenzyl)-1,3,4-oxadiazole-2-carboxamide]",–,40%,< 100 nM,100 to 1000 nM,–
